The test has as its target T1, binding between NRF2 and KEAP1 (biotinylated human KEAP1 protein (Kelch domain), TAMRA-labeled NRF2 peptide) (Homo sapiens, UniProt Q14145).
T1 construct: biotinylated human KEAP1 protein (Kelch domain); biotin (biotinylated)
The test can be described thus: Measurement of activity of inhibiting NRF2 binding (NRF2-KEAP1 TR-FRET). The conditions noted are these: inhibition rate relative to control at 100 nM test compound; TR-FRET; 60 min at room temperature; read-out: NRF2 binding inhibitory activity (at 100 nM). How it is done:
Test Example 1: Measurement of Activity of Inhibiting NRF2 Binding
The inhibitory activity of test compounds against the binding between NRF2 and KEAP1 was measured by Time Resolved Fluorescence Resonance Energy Transfer (TR-FRET) method. Into a 384 well plate, 2 μL of a compound, 2 μL of 2 nM solution of biotinylated human KEAP1 protein (Kelch domain), 2 μL of 14 nM solution of TAMRA-labeled NRF2 peptide (TAMRA-Abu(4)-VWYTDIRMRDWM-OH), and 2 μL of 2 nM solution of Tb-labeled streptavidin, all solutions diluted with assay buffer (25 mM HEPES, pH7.5, 150 mM NaCl, 0.01% Tween-20), were added. For some wells, the KEAP1 protein was not added to define control wells. The plate was incubated at room temperature for 60 minutes, and time-resolved fluorescence was measured with a plate reader Envision (manufactured by PerkinElmer). The inhibitory activity for each compound at a compound concentration of 100 nM were calculated as a relative activity value by setting the fluorescence intensity of control wells to which the KEAP1 protein was not added as 100% inhibition, and the fluorescence intensity of wells to which no compound was added as 0%.
The measurement results according to the method described above (inhibition rate of signal value relative to control at 100 nM of test compound) are shown in Table 3.

T1 sequence (Q14145 321-609 limits assumed): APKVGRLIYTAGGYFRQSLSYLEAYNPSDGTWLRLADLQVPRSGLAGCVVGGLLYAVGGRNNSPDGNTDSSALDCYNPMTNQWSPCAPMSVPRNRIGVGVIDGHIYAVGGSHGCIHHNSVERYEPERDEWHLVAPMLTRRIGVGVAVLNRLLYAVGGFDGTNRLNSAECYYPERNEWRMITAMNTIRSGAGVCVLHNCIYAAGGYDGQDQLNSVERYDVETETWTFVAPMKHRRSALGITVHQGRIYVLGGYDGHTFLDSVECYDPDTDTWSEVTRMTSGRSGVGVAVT

Turning to `Cc1c2ccc3c1nnn3CCCCCc1ccc(cc1)C(=O)N1CCc3ccc(cc3C1)C2CC(=O)O` (racemic) [Example 1, [32-Methyl-20-oxo-8,9,10,21-tetraazahexacyclo[19.5.3.2^16,19.1^3,7.0^6,10.0^24,28]dotriaconta-1(26),3(32),4,6,8,16,18,24,27,30-decaen-2-yl]acetic acid], the inhibition at 0.1 µM amounted to 100%.
The same measure for `O=C(O)CC1c2ccc3c(c2)CN(CC3)C(=O)c2ccc(cc2)CCCCCn2nnc3cc1ccc32` (racemic) [Example 2, [20-oxo-8,9,10,21-tetraazahexacyclo[19.5.3.2^16,19.1^3,7.0^6,10.0^24,28]dotriaconta-1(26),3(32),4,6,8,16,18,24,27,30-decaen-2-yl]acetic acid]: 100%; for `Cc1c2ccc3c1nnn3CCCCCc1ccc(c3c1CC(C)(C)O3)C(=O)N1CCc3ccc(cc3C1)C2CC(=O)O` (racemic) [Example 8, [6,6,33-Trimethyl-2-oxo-5-oxa-1,15,16,17-tetraazaheptacyclo[22.5.3.2^3,9.1^18,22.0^4,8.0^15,19.0^27,31]pentatriaconta-3,8,16,18(33),19,21,24,26,31,34-decaen-23-yl]acetic acid]: 100%.
The same measure for `Cc1c2ccc3c1nnn3CCCCc1ccc(cc1)C(=O)N1CCc3ccc(cc3C1)C2CC(=O)O` (racemic) [Example 13, [31-Methyl-19-oxo-8,9,10,20-tetraazahexacyclo[18.5.3.2^15,18.1^3,7.0^6,10.0^23,27]hentriaconta-1(25),3(31),4,6,8,15,17,23,26,29-decaen-2-yl]acetic acid]: 99%; for `Cc1c2ccc3c1nnn3CC/C=C\CCc1ccc(cc1)C(=O)N1CCc3ccc(cc3C1)C2CC(=O)O` (racemic) [Example 14, [(13Z)-33-Methyl-21-oxo-8,9,10,22-tetraazahexacyclo[20.5.3.2^17,20.1^3,7.0^6,10.0^25,29]tritriaconta-1(27),3(33),4,6,8,13,17,19,25,28,31-undecaen-2-yl]acetic acid]: 79%.
The same measure for `Cc1c2ccc3c1nnn3CCCCCCc1ccc(cc1)C(=O)N1CCc3ccc(cc3C1)C2CC(=O)O` (racemic) [Example 15, [33-Methyl-21-oxo-8,9,10,22-tetraazahexacyclo[20.5.3.2^17,20.1^3,7.0^6,10.0^25,29]tritriaconta-1(27),3(33),4,6,8,17,19,25,28,31-decaen-2-yl]acetic acid]: 100%.
For the compound `Cc1c2ccc3c1nnn3CCCOCc1ccc(cc1)C(=O)N1CCc3ccc(cc3C1)C2CC(=O)O` (racemic) [Example 16, [32-Methyl-20-oxo-14-oxa-8,9,10,21-tetraazahexacyclo[19.5.3.2^16,19.1^3,7.0^6,10.0^24,28]dotriaconta-1(26),3(32),4,6,8,16,18,24,27,30-decaen-2-yl]acetic acid], the inhibition at 0.1 µM amounted to 100%.
The same measure for `Cc1cc2ccc1C(=O)N1CCc3ccc(cc3C1)C(CC(=O)O)c1ccc3c(nnn3CCCOC2)c1C` (racemic) [Example 17, [18,32-Dimethyl-20-oxo-14-oxa-8,9,10,21-tetraazahexacyclo[19.5.3.2^16,19.1^3,7.0^6,10.0^24,28]dotriaconta-1(26),3(32),4,6,8,16,18,24,27,30-decaen-2-yl]acetic acid]: 100%; for `CCc1cc2ccc1C(=O)N1CCc3ccc(cc3C1)C(CC(=O)O)c1ccc3c(nnn3CCCOC2)c1C` (racemic) [Example 18, [18-Ethyl-32-methyl-20-oxo-14-oxa-8,9,10,21-tetraazahexacyclo[19.5.3.2^16,19.1^3,7.0^6,10.0^24,28]dotriaconta-1(26),3(32),4,6,8,16,18,24,27,30-decaen-2-yl]acetic acid]: 100%.
The same measure for `Cc1c2ccc3c1nnn3CCCOCc1ccc(c(C3CC3)c1)C(=O)N1CCc3ccc(cc3C1)C2CC(=O)O` (racemic) [Example 19, [18-Cyclopropyl-32-methyl-20-oxo-14-oxa-8,9,10,21-tetraazahexacyclo[19.5.3.2^16,19.1^3,8.0^6,10.0^24,28]dotriaconta-1(26),3(32),4,6,8,16,18,24,27,30-decaen-2-yl]acetic acid]: 100%; for `Cc1c2ccc3c1nnn3CCCOCc1ccc(c(OC(F)(F)F)c1)C(=O)N1CCc3ccc(cc3C1)C2CC(=O)O` (racemic) [Example 20, [32-Methyl-20-oxo-18-(trifluoromethoxy)-14-oxa-8,9,10,21-tetraazahexacyclo[19.5.3.2^16,19.1^3,7.0^6,10.0^24,28]dotriaconta-1(26),3(32),4,6,8,16,18,24,27,30-decaen-2-yl] acetic acid]: 100%; for `COc1cc2ccc1C(=O)N1CCc3ccc(cc3C1)C(CC(=O)O)c1ccc3c(nnn3CCCOC2)c1C` (racemic) [Example 22, [18-Methoxy-32-methyl-20-oxo-14-oxa-8,9,10,21-tetraazahexacyclo[19.5.3.2^16,19.1^3,7.0^6,10.0^24,28]dotriaconta-1(26),3(32),4,6,8,16,18,24,27,30-decaen-2-yl]acetic acid]: 100%.
Regarding `Cc1c2ccc3c1nnn3CCCOCc1ccc(c(C(F)(F)F)c1)C(=O)N1CCc3ccc(cc3C1)C2CC(=O)O` (racemic) [Example 23, [32-Methyl-20-oxo-18-(trifluoromethyl)-14-oxa-8,9,10,21-tetraazahexacyclo[19.5.3.2^16-19.1^3,7.0^6,10.0^24,28]dotriaconta-1(26),3(32),4,6,8,16,18,24,27,30-decaen-2-yl]acetic acid], the inhibition at 0.1 µM worked out at 100%.
On to `Cc1c2ccc3c1nnn3CCCOCc1ccc(c(Cl)c1)C(=O)N1CCc3ccc(cc3C1)C2CC(=O)O` (racemic) [Example 24, [18-Chloro-32-methyl-20-oxo-14-oxa-8,9,10,21-tetraazahexacyclo[19.5.3.2^16,19.1^3,7.0^6,10.0^24,28]dotriaconta-1(26),3(32),4,6,8,16,18,24,27,30-decaen-2-yl]acetic acid], for which the inhibition at 0.1 µM was found to be 100%.
The same measure for `CCOC(=O)CC1c2ccc3c(c2)CN(CC3)C(=O)c2ccc(cc2)COCCCn2nnc3c(C)c1ccc32` (racemic) [Example 27, Ethyl [32-methyl-20-oxo-14-oxa-8,9,10,21-tetraazahexacyclo[19.5.3.2^16,19.1^3,7.0^6,10.0^24,28]dotriaconta-1(26),3(32),4,6,8,16,18,24,27,30-decaen-2-yl]acetate]: 6%.
For `Cc1c2ccc3c1nnn3CCCOCc1ccc(cc1)C(=O)N1CCc3ccc(cc3C1)C2C(C)(C)C(=O)O` (racemic) [Example 28, 2-Methyl-2-[32-methyl-20-oxo-14-oxa-8,9,10,21-tetraazahexacyclo[19.5.3.2^16,19.1^3,7.0^6,10.0^24,28]dotriaconta-(26),3(32),4,6,8,16,18,24,27,30-decaen-2-yl]propanoic acid], the inhibition at 0.1 µM amounted to 100%.
The same measure for `Cc1c2ccc3c1nnn3CCCCOc1ccc(cc1)C(=O)N1CCc3ccc(cc3C1)C2CC(=O)O` (racemic) [Example 30, [32-Methyl-20-oxo-15-oxa-8,9,10,21-tetraazahexacyclo[19.5.3.2^16,19.1^3,7.0^6,10.0^24,28]dotriaconta-1(26),3(32),4,6,8,16,18,24,27,30-decaen-2-yl]acetic acid]: 100%.
The same measure for `Cc1c2ccc3c1nnn3CCCCOc1ccc(c(F)c1)C(=O)N1CCc3ccc(cc3C1)C2CC(=O)O` (racemic) [Example 31, [18-Fluoro-32-methyl-20-oxo-15-oxa-8,9,10,21-tetraazahexacyclo[19.5.3.2^16,19.1^3,7.0^6,10.0^24,28]dotriaconta-1(26),3(32),4,6,8,16,18,24,27,30-decaen-2-yl]acetic acid]: 100%; for `Cc1c2ccc3c1nnn3CCCCOc1cc(F)c(c(F)c1)C(=O)N1CCc3ccc(cc3C1)C2CC(=O)O` (racemic) [Example 32, [18,30-Difluoro-32-methyl-20-oxo-15-oxa-8,9,10,21-tetraazahexacyclo[19.5.3.2^16,19.1^3,7.0^6,10.0^24,28]dotriaconta-1(26),3(32),4,6,8,16,18,24,27,30-decaen-2-yl]acetic acid]: 100%; for `Cc1c2ccc3c1nnn3CCCCOc1ccc(c3c1OC(C)(C)C3)C(=O)N1CCc3ccc(cc3C1)C2CC(=O)O` (racemic) [Example 33, [6,6,33-Trimethyl-2-oxo-7,10-dioxa-1,15,16,17-tetraazaheptacyclo[22.5.3.2^3.9.1^18,22.0^4,8.0^15,19.0^27,31]pentatriaconta-3,8,16,18(33),19,21,24,26,31,34-decaen-23-yl]acetic acid]: 100%.
The same measure for `Cc1c2ccc3c1nnn3CCCCCc1cc(Cl)c(c(Cl)c1)C(=O)N1CCc3ccc(cc3C1)C2C(C)(C)C(=O)O` (racemic) [Example 57, 2-[18,30-dichloro-32-methyl-20-oxo-8,9,10,21-tetrazahexacyclo[19.5.3.2^16,19.1^3,7.0^6,10.0^24,28]dotriaconta-1(26),3(32),4,6,8,16,18,24,27,30-decaen-2-yl]-2-methylpropanoic acid]: 100%.
